How the values were obtained:
[1] = In-vivo PET imaging in bleomycin treated rat model, LPA1 target engagement (% displacement); conditions: Sprague Dawley, rat, lung, intravenous, bleomycin treated rats, baseline
Description: (§1) [^18F]-(1S,3S)-3-(((6-(5-((((4-(fluoro)butyl)(methyl)carbamoyl)oxy)methyl)-1-methyl-1H-1,2,3-triazol-4-yl)-2-methylpyridin-3-yl)oxy)cyclohexane-1-carboxylic acid was tested to confirm its properties, specificity and targeting of the LPA1 receptor in aged-matched wild type (Sprague Dawley rat, Charles River Laboratory, PA) and bleomycin-induced pulmonary fibrosis rat models. The bleomycin-induced pulmonary fibrosis rat model was generated in anesthetized rats that were administered bleomycin (2 μL/g) via oropharyngeal instillation. For oropharyngeal instillation, anesthetized rats (isoflurane, 4% in 100% 02) were placed on a slanted board/tilting workstation and bleomycin was dripped onto the vocal cords, facilitating aspiration. Rats were then returned to their cages until they fully recovered from anesthesia and were monitored daily for the duration of the experiment. In this experiment, the [^18F]-labeled LPA1 antagonist, produced as described in the above Examples, was tested for its ability to discriminate between normal lung in wild type rats and increased lung LPA1 expression in the bleomycin rat disease model. The bleomycin treated rats were used at 14 and 15 days post bleomycin treatment. […] For PET image acquisition, rats were placed in an anesthetic induction chamber and 3% isoflurane inhalant anesthesia was delivered in 100% O2 at a rate of 1-1.5 L/min. Once sedated, the rats were removed from the induction chamber and placed into a plexiglass 2-chamber holder (custom-made by BMS-Applied Biotechnology group) within the gantry of the PET system (microPET® F220™, Siemens Preclinical Solutions, Knoxville, Tenn.) where they remained for the duration of the study. Anesthesia was maintained with 1-1.5% isoflurane inhalant anesthesia delivered in 100% 02 at a rate of 2 L/min via the nose-cone. Animals were kept warm using an external standalone temperature regulating unit (M2M Imaging Corp) to prevent hypothermia during imaging. Rat respiration was continuously monitored during imaging procedures and isoflurane was adjusted dependent on depth of anesthesia. A 10-minute transmission image was first acquired using a ^57Co point source for the purpose of attenuation correction of the final PET images and confirmation of lung localization for region of interest (ROI) analysis. The scanning region was located beginning at the neck area and extending toward the hind limbs of each animal in order to place the lungs within the 7.6 cm microPET system axial field of view (FOV). Upon completion of the transmission scan, each rat received administration of between 19.5-29.7 MBq (542-803 μCi) of [^18F]-(1S,3S)-3-(((6-(5-((((4-(fluoro)butyl)(methyl) carbamoyl)oxy)methyl)-1-methyl-1H-1,2,3-triazol-4-yl)-2-methylpyridin-3-yl)oxy)cyclohexane-1-carboxylic acid tracer via tail vein catheter followed by a 2 hour dynamic PET emission scan. […] Images were reconstructed using a maximum a posteriori (MAP) algorithm with attenuation correction using the collected transmission images and corrected for radioisotope decay. The PET images were then co-registered with corresponding transmission images using anatomical landmarks (air in lung) and boundaries of the animal holder. Images were analyzed by Inveon Research Workstation (Siemens Medical Solutions USA Inc., PA). Analysis for each rat was done with regions of interest (ROIs) drawn onto each whole lung and a section of the liver using the co-registered transmission images. There were 3-4 ROIs drawn for each lung volume (left whole lung and right whole lung) as well as 3 ROIs drawn on a section of the liver. ROIs were drawn inside the whole lung to avoid spillover signal from the heart and liver. ROIs were drawn on a section of the liver using the same method. Based on quantitative values from these ROIs (nCi/cc), % injected dose/cc (% ID/g) was calculated. Radiotracer uptake was compared across lung tissues in these groups using the time periods between 60-90 minutes post radioligand injection. […]

LPA1 = LPA1 (Rattus norvegicus, UniProt P61794); assay: as above; conditions: bleomycin treated rats
Description: as §1

[2] = Radio-metabolism, fraction intact post-injection; format: in vivo; conditions: at the 90 minute post-injection

Chain of LPA1 (P61794 whole entry): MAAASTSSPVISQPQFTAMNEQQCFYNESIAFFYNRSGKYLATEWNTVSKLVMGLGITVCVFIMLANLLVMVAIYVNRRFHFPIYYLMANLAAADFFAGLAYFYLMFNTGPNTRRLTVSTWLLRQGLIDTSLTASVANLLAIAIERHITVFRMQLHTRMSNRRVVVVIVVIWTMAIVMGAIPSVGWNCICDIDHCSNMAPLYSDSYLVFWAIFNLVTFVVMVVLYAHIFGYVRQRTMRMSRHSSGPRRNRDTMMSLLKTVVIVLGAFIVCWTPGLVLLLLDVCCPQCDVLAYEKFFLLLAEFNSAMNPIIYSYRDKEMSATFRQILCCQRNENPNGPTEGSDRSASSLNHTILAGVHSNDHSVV

SMILES: Cc1nc(-c2nnn(C)c2COC(=O)N(C)CCCC[18F])ccc1O[C@H]1CCC[C@H](C(=O)O)C1 [Example 16]
- tissue uptake ([1]; 1 mg/kg, Group 1 (1 mg/kg group, n=6)): 0.12 ± 0.01 %ID/g
- tissue uptake ([1]; 3 mg/kg, Group 2 (3 mg/kg group, n=6)): 0.1 ± 0.01 %ID/g
- tissue uptake ([1]; 10 mg/kg, Group 3 (10 mg/kg group, n=6)): 0.12 ± 0.02 %ID/g
- tissue uptake ([1]; 30 mg/kg, Group 4 (30 mg/kg group, n=7)): 0.09 ± 0.01 %ID/g
- tissue uptake ([1]; 100 mg/kg, Group 5 (100 mg/kg group, n=6)): 0.1 ± 0.01 %ID/g
- Baseline % ID/g in Lung, Mean (LPA1; Group 1 (1 mg/kg group, n=6), listed as [^18F]-(1S,3S)-3-(6-(5-((((4-(fluoro)butyl)(methyl)carbamoyl)oxy)methyl)-1-meth, 1 mg/kg))): 0.12 % ID/g
- Baseline % ID/g in Lung, Mean (LPA1; Group 2 (3 mg/kg group, n=6), listed as [^18F]-(1S,3S)-3-(6-(5-((((4-(fluoro)butyl)(methyl)carbamoyl)oxy)methyl)-1-meth, 3 mg/kg))): 0.10 % ID/g
- Baseline % ID/g in Lung, Mean (LPA1; Group 3 (10 mg/kg group, n=6), listed as [^18F]-(1S,3S)-3-(6-(5-((((4-(fluoro)butyl)(methyl)carbamoyl)oxy)methyl)-1-meth, 10 mg/kg))): 0.12 % ID/g
- Baseline % ID/g in Lung, Mean (LPA1; Group 4 (30 mg/kg group, n=7), listed as [^18F]-(1S,3S)-3-(6-(5-((((4-(fluoro)butyl)(methyl)carbamoyl)oxy)methyl)-1-meth, 30 mg/kg))): 0.09 % ID/g
- Baseline % ID/g in Lung, Mean (LPA1; Group 5 (100 mg/kg group, n=6), listed as [^18F]-(1S,3S)-3-(6-(5-((((4-(fluoro)butyl)(methyl)carbamoyl)oxy)methyl)-1-meth, 100 mg/kg))): 0.10 % ID/g
- radio-metabolism, intact [2]: 80%
